# Results as given in PMC10687260, “1,3-Diphenylureido hydroxamate as a promising scaffold for generation of potent antimalarial histone deacetylase inhibitors” (Scientific Reports, 2023).
# Experiments:
# [1] = tested on: P. falciparum 3D7; assay: Antiplasmodial SYBR Green I proliferation assay, P. falciparum 3D7; type: cell-based, Plasmodium falciparum; conditions: Plasmodium falciparum, 3D7, 96 h, 96 h; values in brackets 95% confidence intervals; read-out: IC50 Pf3D7
# Procedure, shortened: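 SYBR Green I DNA-content proliferation assay on P. falciparum 3D7 and Dd2 in human O+ erythrocytes. Fluorescence after 1 h lysis with 0.02% SYBR Green I, scaled 0–100% against untreated parasites; curves by non-linear regression on means of three independent triplicate experiments.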
# [2] = tested on: HepG2 cells; assay: Cytotoxicity in human HepG2 cells (WST-1); type: cell-based; conditions: Homo sapiens, HepG2; 48 h, WST-1; read-out: IC50 HepG2
# Procedure, shortened: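 HepG2 cells (10^4/well, seeded overnight) were exposed to two-fold serial compound dilutions in fresh medium, then given WST-1 for 4 h. Formazan absorbance at 450 nm, with 630 nm background, was scaled 0–100% against untreated and DMSO controls.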
# [3] = biological target: T1, human HDAC1 (Homo sapiens, UniProt Q13547); assay: In vitro HDAC enzymatic assay, HDAC1; type: biochemical; conditions: mean ± SD
# T1 construct: purchased ENZO Life Sciences AG (Lausen, CH)
# T1 sequence (Q13547 whole entry): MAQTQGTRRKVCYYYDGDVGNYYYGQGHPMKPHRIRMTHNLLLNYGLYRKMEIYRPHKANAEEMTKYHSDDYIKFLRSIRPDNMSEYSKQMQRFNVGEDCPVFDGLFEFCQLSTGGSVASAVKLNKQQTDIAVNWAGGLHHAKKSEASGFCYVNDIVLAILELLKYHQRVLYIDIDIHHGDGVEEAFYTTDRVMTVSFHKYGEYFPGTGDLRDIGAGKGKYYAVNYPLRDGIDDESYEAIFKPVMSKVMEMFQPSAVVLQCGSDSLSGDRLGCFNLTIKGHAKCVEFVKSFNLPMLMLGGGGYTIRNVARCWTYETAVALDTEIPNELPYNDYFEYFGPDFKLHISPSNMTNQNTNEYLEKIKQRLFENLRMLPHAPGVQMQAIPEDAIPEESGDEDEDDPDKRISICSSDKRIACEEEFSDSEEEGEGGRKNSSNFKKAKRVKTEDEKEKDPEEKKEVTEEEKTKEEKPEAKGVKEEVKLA
# Method: (§1) In vitro HDAC enzymatic assays. Recombinant human HDAC1 and HDAC6 were purchased from ENZO Life Sciences AG (Lausen, CH) whereas HDAC8 was produced as described before. In vitro testing of the inhibitors in an enzymatic assay was carried out as described in previous publications[32],[33]. For HDAC1 a fluorogenic peptide derived from p53 (Ac-RHKK(Acetyl)-AMC) was used. For HDAC6, the substrate (Abz-SRGGK(thio-TFA)FFRR-NH2) was used as described before.
# [4] = biological target: T2, HDAC8 (Homo sapiens, UniProt Q9BY41); assay: In vitro HDAC enzymatic assay, HDAC8; type: biochemical; conditions: mean ± SD
# T2 construct: made in house
# T2 sequence (Q9BY41 1-377): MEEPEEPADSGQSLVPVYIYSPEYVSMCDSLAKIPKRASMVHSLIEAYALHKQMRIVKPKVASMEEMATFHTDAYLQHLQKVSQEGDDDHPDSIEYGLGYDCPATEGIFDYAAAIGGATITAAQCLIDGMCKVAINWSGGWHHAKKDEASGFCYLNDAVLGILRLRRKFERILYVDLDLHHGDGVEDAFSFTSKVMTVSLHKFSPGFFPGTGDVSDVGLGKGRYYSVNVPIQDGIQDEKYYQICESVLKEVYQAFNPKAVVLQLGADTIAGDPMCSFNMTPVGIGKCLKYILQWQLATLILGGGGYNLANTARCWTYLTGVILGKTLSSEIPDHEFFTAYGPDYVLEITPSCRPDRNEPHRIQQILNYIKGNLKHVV
# Method: as §1
# [5] = biological target: T3, CYP450 2C9 (Homo sapiens, UniProt P11712); assay: CYP450 inhibition in human liver microsomes, 2C9; type: in vitro ADME; conditions: 10 µM
# T3 construct: 10 μM compound was incubated with human liver microsomes and selective marker substrates; from tissue; host or cells: human liver microsomes
# T3 sequence (P11712 whole entry): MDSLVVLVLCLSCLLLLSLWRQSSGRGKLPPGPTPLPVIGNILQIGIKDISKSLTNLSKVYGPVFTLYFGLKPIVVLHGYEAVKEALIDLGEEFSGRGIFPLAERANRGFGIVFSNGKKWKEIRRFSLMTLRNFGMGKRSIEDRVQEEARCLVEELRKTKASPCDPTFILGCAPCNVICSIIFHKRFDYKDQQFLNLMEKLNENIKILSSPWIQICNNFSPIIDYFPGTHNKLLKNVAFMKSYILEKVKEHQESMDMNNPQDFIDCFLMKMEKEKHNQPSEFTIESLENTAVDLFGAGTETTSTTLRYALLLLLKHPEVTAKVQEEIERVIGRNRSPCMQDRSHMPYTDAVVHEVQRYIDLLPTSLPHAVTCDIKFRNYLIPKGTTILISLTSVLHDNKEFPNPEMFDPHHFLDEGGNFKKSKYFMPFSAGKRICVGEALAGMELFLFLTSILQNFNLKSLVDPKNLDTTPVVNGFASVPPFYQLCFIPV
# [6] = biological target: T4, CYP450 2D6 (Homo sapiens, UniProt P10635); assay: CYP450 inhibition in human liver microsomes, 2D6; type: in vitro ADME; conditions: 10 µM
# T4 construct: 10 μM compound was incubated with human liver microsomes and selective marker substrates; from tissue; host or cells: human liver microsomes
# T4 sequence (P10635 whole entry): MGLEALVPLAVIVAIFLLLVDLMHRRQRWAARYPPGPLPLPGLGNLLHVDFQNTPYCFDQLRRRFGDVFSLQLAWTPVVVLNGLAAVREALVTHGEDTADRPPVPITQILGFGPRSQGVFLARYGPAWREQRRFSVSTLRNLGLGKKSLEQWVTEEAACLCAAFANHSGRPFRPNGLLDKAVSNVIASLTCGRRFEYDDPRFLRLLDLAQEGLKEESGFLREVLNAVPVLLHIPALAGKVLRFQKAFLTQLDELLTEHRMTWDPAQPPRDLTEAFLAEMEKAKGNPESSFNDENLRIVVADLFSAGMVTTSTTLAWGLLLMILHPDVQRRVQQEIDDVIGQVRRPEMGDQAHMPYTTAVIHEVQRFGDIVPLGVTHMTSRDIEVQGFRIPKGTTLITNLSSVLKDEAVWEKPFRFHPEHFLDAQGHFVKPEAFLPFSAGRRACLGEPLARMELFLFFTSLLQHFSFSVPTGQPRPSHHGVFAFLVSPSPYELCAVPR
# [7] = Stability in human hepatic microsomes; type: in vitro ADME; conditions: for half-life at 1 µM: 1 mg/mL hepatic microsomes, 1 µM compound, read-out: Half-life t1/2 Human; for microsomal CLint at 1 µM: read-out: Intrinsic clearance Clint Human
# Excerpt: (§2) DMPK evaluation. […].
# [8] = Stability in mouse hepatic microsomes; type: in vitro ADME; conditions: for half-life at 1 µM: 1 mg/mL hepatic microsomes, 1 µM compound, read-out: Half-life t1/2 Mouse; for microsomal CLint at 1 µM: read-out: Intrinsic clearance Clint Mouse
# Excerpt: as §2
SMILES,IC50 [1] [nM],IC50 [2] [nM],IC50 [3] [nM],IC50 [4] [nM],CYP450% inhibition @ 10 µM 2C9 [5],CYP450% inhibition @ 10 µM 2D6 [6],half-life at 1 µM [7] [min],microsomal CLint at 1 µM [7] [µL/min/mg],half-life at 1 µM [8] [min],microsomal CLint at 1 µM [8] [µL/min/mg]
"COc1ccc(NC(=O)Nc2ccc(/C=C/C(=O)NO)cc2)cc1 [Compound 6c, (E)-N-hydroxi-3-(4-(3-(4-methoxyphenyl)ureido)phenyl)acrylamide]",1030,13300,1580 ± 62.2,63.7 ± 4.2,18%,*^b (Inhibition < 10%),39.6,17,4.4,158
"COc1ccc(NC(=O)Nc2ccc(C(=O)NO)cc2)cc1 [Compound 8c, N-hydroxy-4-(3–4(-methoxyphenyl)ureido)benzamide]",740,> 200000,6180 ± 231,136 ± 8.2,* (Inhibition < 10%),* (Inhibition < 10%),98.8,7,2.5,281
"O=C(Nc1ccccc1)Nc1ccc(C(=O)NO)cc1 [Compound 8a, N-hydroxy-4-(3-phenylureido)bezamide]",560,56000,5330 ± 366,93.5 ± 5.3,* (Inhibition < 10%),* (Inhibition < 10%),> 120,< 6,10.1,69
"O=C(Nc1ccc(Cl)cc1)Nc1ccc(C(=O)NO)cc1 [Compound 8b, 4-(3-(4-chlorophenyl)ureido)-N-hydroxybenzamide]",1310,> 200000,5240 ± 476,85.1 ± 9.6,* (Inhibition < 10%),* (Inhibition < 10%),66,10,4,173
"O=C(Nc1ccc(C(=O)NO)cc1)Nc1ccc([N+](=O)[O-])cc1 [Compound 8d, N-hydroxy-4-(3-(4-nitrophenyl)ureido)benzamide]",550,54000,3740 ± 232,68.1 ± 6.8,* (Inhibition < 10%),* (Inhibition < 10%),> 120,< 6,13.8,50
"COc1ccc(NC(=O)Nc2ccc(CCC(=O)NO)cc2)cc1 [Compound 7c, N-hydroxy-3-(4-(3-(4-methoxyphenyl)ureido)phenyl)propanamide]",5820,> 50000,3560 ± 185,362 ± 22.7,* (Inhibition < 10%),* (Inhibition < 10%),> 120,< 6,4.1,169
